Data reported in patent US20250098679A1, “HERBICIDAL PYRIDONE DERIVATIVES” (SYNGENTA CROP PROTECTION AG, priority 2021, published 2025).

Experiments:
Assay type in all cases: in vivo
Settings in all cases: evaluated after 13 days
Setaria faberi (SETFA) = assay: Post-emergence Test, Setaria faberi (SETFA); set-up: key to percentage damage caused to the plant, SETFA (five-point scale): 5=81-100%, 4=61-80%, 3=41-60%, 2=21-40%, 1=0-20% damage
Method: (§1) Seeds of a variety of test species are sown in standard soil in pots (Setaria faberi (SETFA), Echinochloa crus-galli (ECHCG), Zea mays (ZEAMX), Ipomoea hederacea (IPOHE), Amaranthus palmeri (AMAPA), Amaranthus retoflexus (AMARE)). After 8 days cultivation under controlled conditions in a glasshouse (at 24° C./16° C., day/night; 14 hours light; 65% humidity), the plants are sprayed with an aqueous spray solution derived from the formulation of the technical active ingredient in acetone/water (50:50) solution containing 0.5% Tween 20 (polyoxyethelyene sorbitan monolaurate, CAS RN 9005-64-5). Compounds are applied at 1000 g/ha unless otherwise stated. The test plants are then grown in a glasshouse under controlled conditions in a glasshouse (at 24° C./16° C., day/night; 14 hours light; 65% humidity) and watered twice daily. After 13 days the test is evaluated for the percentage damage caused to the plant. The biological activities are shown in the following table on a five-point scale (5=81-100%; 4=61-80%; 3=41-60%; 2=21-40%; 1=0-20%; -=not tested).

[1] = test system: Amaranthus retoflexus (AMARE); assay: Post-emergence Test, Amaranthus retoflexus (AMARE); set-up: key to percentage damage caused to the plant, AMARE (five-point scale): 5=81-100%, 4=61-80%, 3=41-60%, 2=21-40%, 1=0-20% damage
Method: as §1

[2] = test system: Amaranthus palmeri (AMAPA); assay: Post-emergence Test, Amaranthus palmeri (AMAPA); set-up: key: 5=81-100%, 4=61-80%, 3=41-60%, 2=21-40%, 1=0-20% damage
Method: as §1

Zea mays (ZEAMX) = assay: Post-emergence Test, Zea mays (ZEAMX); set-up: key to percentage damage caused to the plant, ZEAMX (five-point scale): 5=81-100%, 4=61-80%, 3=41-60%, 2=21-40%, 1=0-20% damage
Method: as §1

[3] = test system: Ipomoea hederacea (IPOHE); assay: Post-emergence Test, Ipomoea hederacea (IPOHE); set-up: key to percentage damage caused to the plant, IPOHE (five-point scale): 5=81-100%, 4=61-80%, 3=41-60%, 2=21-40%, 1=0-20% damage
Method: as §1

[4] = test system: Echinochloa crus-galli (ECHCG); assay: Post-emergence Test, Echinochloa crus-galli (ECHCG); set-up: key to percentage damage caused to the plant, ECHCG (five-point scale): 5=81-100%, 4=61-80%, 3=41-60%, 2=21-40%, 1=0-20% damage
Method: as §1

CCn1c(Cn2nc(C(F)F)c3c2CCOC3)cc(=O)c(C(=O)O)c1-c1ccc(Cl)c(Cl)c1 [Compound 87, 2-(3,4-dichlorophenyl)-6-[[3-(difluoromethyl)-6,7-dihydro-4H-pyrano[4,3-c]pyrazol-1-yl]methyl]-1-ethyl-4-oxo-pyridine-3-carboxylic acid]
1 (1=0-20%): percentage damage caused to the plant, SETFA (five-point scale) (Setaria faberi (SETFA); 1000 g/ha) | percentage damage caused to the plant, AMARE (five-point scale) ([1]; 1000 g/ha) | percentage damage caused to the plant, ZEAMX (five-point scale) (Zea mays (ZEAMX); 250 g/Ha) | percentage damage caused to the plant, ZEAMX (five-point scale) (Zea mays (ZEAMX); 1000 g/ha) | percentage damage caused to the plant, IPOHE (five-point scale) ([3]; 1000 g/ha) | percentage damage caused to the plant, ECHCG (five-point scale) ([4]; 250 g/Ha) | percentage damage caused to the plant, ECHCG (five-point scale) ([4]; 1000 g/ha)
2 (2=21-40%): percentage damage caused to the plant, AMAPA (five-point scale) ([2]; 1000 g/ha)
0: percentage damage caused to the plant, SETFA (five-point scale) (Setaria faberi (SETFA); 250 g/Ha) | percentage damage caused to the plant, AMARE (five-point scale) ([1]; 250 g/Ha) | percentage damage caused to the plant, AMAPA (five-point scale) ([2]; 250 g/Ha) | percentage damage caused to the plant, IPOHE (five-point scale) ([3]; 250 g/Ha)

CCn1c(Cn2cc(S(C)(=O)=O)cn2)cc(=O)c(C(=O)O)c1-c1ccc(Cl)c(Cl)c1 [Compound 90, 2-(3,4-dichlorophenyl)-1-ethyl-6-[(4-methylsulfonylpyrazol-1-yl)methyl]-4-oxo-pyridine-3-carboxylic acid]
1 (1=0-20%): percentage damage caused to the plant, AMARE (five-point scale) ([1]; 1000 g/ha) | percentage damage caused to the plant, AMAPA (five-point scale) ([2]; 1000 g/ha) | percentage damage caused to the plant, ECHCG (five-point scale) ([4]; 1000 g/ha)
0: percentage damage caused to the plant, SETFA (five-point scale) (Setaria faberi (SETFA); 1000 g/ha) | percentage damage caused to the plant, ZEAMX (five-point scale) (Zea mays (ZEAMX); 1000 g/ha) | percentage damage caused to the plant, IPOHE (five-point scale) ([3]; 1000 g/ha)

CCn1c(Cn2ccnc2C2CC2)cc(=O)c(C(=O)O)c1-c1ccc(Cl)c(Cl)c1 [Compound 95, 6-[(2-cyclopropylimidazol-1-yl)methyl]-2-(3,4-dichlorophenyl)-1-ethyl-4-oxo-pyridine-3-carboxylic acid]
0: percentage damage caused to the plant, AMARE (five-point scale) ([1]; 1000 g/ha)
1 (1=0-20%): percentage damage caused to the plant, SETFA (five-point scale) (Setaria faberi (SETFA); 1000 g/ha) | percentage damage caused to the plant, AMAPA (five-point scale) ([2]; 1000 g/ha) | percentage damage caused to the plant, ZEAMX (five-point scale) (Zea mays (ZEAMX); 1000 g/ha) | percentage damage caused to the plant, IPOHE (five-point scale) ([3]; 1000 g/ha) | percentage damage caused to the plant, ECHCG (five-point scale) ([4]; 1000 g/ha)

CCn1c(Cn2nc3c(c2C(F)F)COCC3)cc(=O)c(C(=O)O)c1-c1ccc(Cl)c(Cl)c1 [Compound 97, 2-(3,4-dichlorophenyl)-6-[[3-(difluoromethyl)-6,7-dihydro-4H-pyrano[4,3-c]pyrazol-2-yl]methyl]-1-ethyl-4-oxo-pyridine-3-carboxylic acid]
1 (1=0-20%): percentage damage caused to the plant, AMARE (five-point scale) ([1]; 250 g/Ha) | percentage damage caused to the plant, AMAPA (five-point scale) ([2]; 250 g/Ha) | percentage damage caused to the plant, ZEAMX (five-point scale) (Zea mays (ZEAMX); 250 g/Ha) | percentage damage caused to the plant, ECHCG (five-point scale) ([4]; 250 g/Ha)
0: percentage damage caused to the plant, SETFA (five-point scale) (Setaria faberi (SETFA); 250 g/Ha) | percentage damage caused to the plant, IPOHE (five-point scale) ([3]; 250 g/Ha)

CCn1c(Cn2cc3cc(Cl)ccc3n2)cc(=O)c(C(=O)O)c1-c1ccc(Cl)c(Cl)c1 [Compound 99, 6-[(5-chloroindazol-2-yl)methyl]-2-(3,4-dichlorophenyl)-1-ethyl-4-oxo-pyridine-3-carboxylic acid]
1 (1=0-20%): percentage damage caused to the plant, ZEAMX (five-point scale) (Zea mays (ZEAMX); 1000 g/ha) | percentage damage caused to the plant, IPOHE (five-point scale) ([3]; 1000 g/ha) | percentage damage caused to the plant, ECHCG (five-point scale) ([4]; 250 g/Ha)
0: percentage damage caused to the plant, SETFA (five-point scale) (Setaria faberi (SETFA); 250 g/Ha) | percentage damage caused to the plant, SETFA (five-point scale) (Setaria faberi (SETFA); 1000 g/ha) | percentage damage caused to the plant, AMARE (five-point scale) ([1]; 250 g/Ha) | percentage damage caused to the plant, AMARE (five-point scale) ([1]; 1000 g/ha) | percentage damage caused to the plant, AMAPA (five-point scale) ([2]; 250 g/Ha) | percentage damage caused to the plant, AMAPA (five-point scale) ([2]; 1000 g/ha) | percentage damage caused to the plant, ZEAMX (five-point scale) (Zea mays (ZEAMX); 250 g/Ha) | percentage damage caused to the plant, IPOHE (five-point scale) ([3]; 250 g/Ha) | percentage damage caused to the plant, ECHCG (five-point scale) ([4]; 1000 g/ha)

CCn1c(Cn2ncc3ccccc32)cc(=O)c(C(=O)O)c1-c1ccc(Cl)c(Cl)c1 [Compound 105, 2-(3,4-dichlorophenyl)-1-ethyl-6-[indazol-1-ylmethyl)-4-oxo-pyridine-3-carboxylic acid]
4 (4=61-80%): percentage damage caused to the plant, IPOHE (five-point scale) ([3]; 1000 g/ha)
1 (1=0-20%): percentage damage caused to the plant, ZEAMX (five-point scale) (Zea mays (ZEAMX); 1000 g/ha)
2 (2=21-40%): percentage damage caused to the plant, SETFA (five-point scale) (Setaria faberi (SETFA); 1000 g/ha) | percentage damage caused to the plant, AMARE (five-point scale) ([1]; 1000 g/ha) | percentage damage caused to the plant, AMAPA (five-point scale) ([2]; 1000 g/ha)
3 (3=41-60%): percentage damage caused to the plant, ECHCG (five-point scale) ([4]; 250 g/Ha) | percentage damage caused to the plant, ECHCG (five-point scale) ([4]; 1000 g/ha)
0: percentage damage caused to the plant, SETFA (five-point scale) (Setaria faberi (SETFA); 250 g/Ha) | percentage damage caused to the plant, AMARE (five-point scale) ([1]; 250 g/Ha) | percentage damage caused to the plant, AMAPA (five-point scale) ([2]; 250 g/Ha) | percentage damage caused to the plant, ZEAMX (five-point scale) (Zea mays (ZEAMX); 250 g/Ha) | percentage damage caused to the plant, IPOHE (five-point scale) ([3]; 250 g/Ha)

CCn1c(Cn2cc3ccccc3n2)cc(=O)c(C(=O)O)c1-c1ccc(Cl)c(Cl)c1 [Compound 106, 2-(3,4-dichlorophenyl)-1-ethyl-6-(indazol-2-ylmethyl)-4-oxo-pyridine-3-carboxylic acid]
1 (1=0-20%): percentage damage caused to the plant, SETFA (five-point scale) (Setaria faberi (SETFA); 1000 g/ha) | percentage damage caused to the plant, AMARE (five-point scale) ([1]; 1000 g/ha) | percentage damage caused to the plant, AMAPA (five-point scale) ([2]; 1000 g/ha) | percentage damage caused to the plant, ECHCG (five-point scale) ([4]; 1000 g/ha)
2 (2=21-40%): percentage damage caused to the plant, ECHCG (five-point scale) ([4]; 250 g/Ha)
3 (3=41-60%): percentage damage caused to the plant, IPOHE (five-point scale) ([3]; 1000 g/ha)
0: percentage damage caused to the plant, SETFA (five-point scale) (Setaria faberi (SETFA); 250 g/Ha) | percentage damage caused to the plant, AMARE (five-point scale) ([1]; 250 g/Ha) | percentage damage caused to the plant, AMAPA (five-point scale) ([2]; 250 g/Ha) | percentage damage caused to the plant, ZEAMX (five-point scale) (Zea mays (ZEAMX); 250 g/Ha) | percentage damage caused to the plant, ZEAMX (five-point scale) (Zea mays (ZEAMX); 1000 g/ha) | percentage damage caused to the plant, IPOHE (five-point scale) ([3]; 250 g/Ha)

CCn1c(Cn2nc(C(F)(F)F)c3c2CCOC3)cc(=O)c(C(=O)O)c1-c1ccc(Cl)c(Cl)c1 [Compound 107, 2-(3,4-dichlorophenyl)-1-ethyl-4-oxo-6-[[3-(trifluoromethyl)-6,7-dihydro-4H-pyrano[4,3-c]pyrazol-1-yl]methyl]pyridine-3-carboxylic acid]
0: percentage damage caused to the plant, SETFA (five-point scale) (Setaria faberi (SETFA); 250 g/Ha) | percentage damage caused to the plant, AMARE (five-point scale) ([1]; 250 g/Ha) | percentage damage caused to the plant, AMAPA (five-point scale) ([2]; 250 g/Ha) | percentage damage caused to the plant, ZEAMX (five-point scale) (Zea mays (ZEAMX); 250 g/Ha) | percentage damage caused to the plant, ZEAMX (five-point scale) (Zea mays (ZEAMX); 1000 g/ha) | percentage damage caused to the plant, IPOHE (five-point scale) ([3]; 250 g/Ha)
1 (1=0-20%): percentage damage caused to the plant, SETFA (five-point scale) (Setaria faberi (SETFA); 1000 g/ha) | percentage damage caused to the plant, AMARE (five-point scale) ([1]; 1000 g/ha) | percentage damage caused to the plant, AMAPA (five-point scale) ([2]; 1000 g/ha) | percentage damage caused to the plant, ECHCG (five-point scale) ([4]; 1000 g/ha)
2 (2=21-40%): percentage damage caused to the plant, IPOHE (five-point scale) ([3]; 1000 g/ha) | percentage damage caused to the plant, ECHCG (five-point scale) ([4]; 250 g/Ha)

CCOC(=O)c1nccn1Cc1cc(=O)c(C(=O)O)c(-c2ccc(Cl)c(Cl)c2)n1CC [Compound 110, 2-(3,4-dichlorophenyl)-6-[(2-ethoxycarbonylimidazol-1-yl)methyl]-1-ethyl-4-oxo-pyridine-3-carboxylic acid]
1 (1=0-20%): percentage damage caused to the plant, SETFA (five-point scale) (Setaria faberi (SETFA); 1000 g/ha) | percentage damage caused to the plant, IPOHE (five-point scale) ([3]; 1000 g/ha) | percentage damage caused to the plant, ECHCG (five-point scale) ([4]; 1000 g/ha)
0: percentage damage caused to the plant, AMARE (five-point scale) ([1]; 1000 g/ha) | percentage damage caused to the plant, AMAPA (five-point scale) ([2]; 1000 g/ha) | percentage damage caused to the plant, ZEAMX (five-point scale) (Zea mays (ZEAMX); 1000 g/ha)
